The record followed here is patent publication US4623662A, “Antiatherosclerotic ureas and thioureas” (American Cyanamid Company, priority 1985, dated 1986).

This assay deals with T1, fatty acyl CoA: cholesterol acyl transferase (ACAT) (Rattus norvegicus, UniProt O70536).
T1 construct: The supernatant, containing the microsomal fraction, served as the source of the cholesterol-esterifying enzyme; from tissue; host or cells: rat adrenals, supernatant of 1,000 x g centrifugation containing the microsomal fraction
T1 sequence (O70536 1-545): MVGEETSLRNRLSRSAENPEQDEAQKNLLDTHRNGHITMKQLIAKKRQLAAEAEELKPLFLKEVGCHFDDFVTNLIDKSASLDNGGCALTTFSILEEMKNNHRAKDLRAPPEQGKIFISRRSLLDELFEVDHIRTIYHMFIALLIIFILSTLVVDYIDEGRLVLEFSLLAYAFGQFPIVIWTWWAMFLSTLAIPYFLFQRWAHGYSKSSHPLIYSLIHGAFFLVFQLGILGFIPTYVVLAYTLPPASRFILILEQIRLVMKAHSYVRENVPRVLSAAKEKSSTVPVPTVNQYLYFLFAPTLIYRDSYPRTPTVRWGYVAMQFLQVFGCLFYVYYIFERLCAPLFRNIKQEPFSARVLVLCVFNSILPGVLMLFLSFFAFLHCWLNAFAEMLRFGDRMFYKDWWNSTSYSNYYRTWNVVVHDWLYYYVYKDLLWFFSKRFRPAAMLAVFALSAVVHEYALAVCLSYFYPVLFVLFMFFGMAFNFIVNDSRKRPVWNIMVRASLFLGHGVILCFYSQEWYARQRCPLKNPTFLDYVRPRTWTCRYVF
As to the kind of experiment: Inhibition of fatty acyl CoA:cholesterol acyl transferase (ACAT), rat adrenal enzyme. It counts as biochemical. The gist of the method:
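Read-out was scintillation counting of [14C]cholesteryl ester, isolated by TLC, after 10 min at 37° C with [14C]oleoyl CoA. Beforehand, compound (final 5.2 μg/ml in single-concentration tests) was preincubated 10 min at 37° C with BSA and rat adrenal microsomal supernatant in pH 7.4 phosphate. Results given as percent inhibition versus control or IC50 over several concentrations.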

Where [1] appears, read: rat adrenal ACAT, final concentration 5.2 μg/ml, read-out: % Inhibition.

Read-outs that look alike come from different tables or passages of the source.

A word on the inhibition: it is the percentage by which the read-out fell short of the control. Consider `CCCCCCCN(C(=O)Nc1c(Cl)cc(Cl)cc1Cl)c1ccco1` [1-(n-Heptyl)-1-(2-furyl)-3-(2,4,6-trichlorophenyl)urea], for which the inhibition at 5.2 µg/mL under setting [1] worked out at 96.1%.
For `CCCCCCc1ccc(CN(CCCC)C(=O)Nc2ccc(C)cc2C)cc1` [1-(n-Butyl)-1-[4-(n-hexyl)benzyl]-3-(2,4-dimethylphenyl)urea], the inhibition at 5.2 µg/mL under setting [1] came to 93.8%.
Regarding `CCCCN(Cc1c(Cl)cccc1Cl)C(=O)Nc1ccc(C)cc1C` [1-( -n-Butyl)-1-(2,6-dichlorobenzyl)-3-(2,4-dimethylphenyl)urea], the inhibition at 5.2 µg/mL under setting [1] is 74.5%.
As to `CCCCCCCN(CCc1ccccc1)C(=O)Nc1cc(Cl)c(Cl)cc1Cl` [1-(n-Heptyl)-1-(2-phenylethyl)-3-(2,4,5-trichlorophenyl)urea], the inhibition at 5.2 µg/mL under setting [1] was 77.3%.
With `CCCCCCCN(Cc1ccc(CCCC)cc1)C(=O)Nc1cccc(C(F)(F)F)c1` [1-(n-Heptyl)-1-(4-n-butylbenzyl)-3-(3-trifluoromethylphenyl)urea], under setting [1], the inhibition at 5.2 µg/mL was 85%.
For `CCCCOc1ccc(CN(Cc2ccccc2)C(=O)Nc2cccc(C(F)(F)F)c2)cc1` [1-(n-Benzyl)-1-(4-n-butoxybenzyl)-3-(3-trifluoromethylphenyl)urea], the inhibition at 5.2 µg/mL under setting [1] is 87%.
In the case of `CCCCN(Cc1ccccc1)C(=O)Nc1cc(Cl)ccc1OC` [1-Benzyl-1-( -n-butyl)-3-(5-chloro-2-methoxyphenyl)urea], the inhibition at 5.2 µg/mL under setting [1] came to 80.6%.
For the compound `CCCCN(CCc1ccc(F)cc1)C(=O)Nc1ccc(C)cc1C` [1-(n-Butyl)-1-[2-(4-fluorophenyl)ethyl]-3-(2,4-dimethylphenyl)urea], the inhibition at 5.2 µg/mL under setting [1] is 96.1%.
For the compound `CCCCN(Cc1ccccc1)C(=O)Nc1cccc(Cl)c1O` [1-(n-Butyl)-1-benzyl-3-(3-chloro-2-hydroxyphenyl)urea], the inhibition at 5.2 µg/mL under setting [1] worked out at 71%.
As usually defined, the IC50 is the concentration at which inhibition is half-maximal. Read a high IC50 as weaker potency in that assay. For `Cc1cc(Cl)cc(C)c1NC(=O)N(CCCCCC(C)O)Cc1ccc(CC(C)(C)C)cc1` (stereo not shown) [1-(6-Hydroxyheptyl)-1-[4-(2,2-dimethylpropyl)benzyl]-3-(4-chloro-2,6-dimethylphenyl)urea], where the note is “rat adrenal ACAT, several concentrations”, the IC50 was determined as 1130 nM.
Turning to `Cc1cccc(CCN(Cc2cccc([N+](=O)[O-])c2)C(=O)Nc2ccc(C)cc2C)c1` [1-[2-(3-Methylphenyl)ethyl]-1-(3-nitrobenzyl)-3-(2,4-dimethylphenyl)urea], the inhibition at 5.2 µg/mL under setting [1] amounted to 95.7%.
`Cc1ccc(CN(CCc2cccc(F)c2)C(=O)Nc2ccc(C)cc2C)cc1` [1-[2-(3-Fluorophenyl)ethyl]-1-(4-methylbenzyl)-3-(2,4-dimethylphenyl)urea] showed an inhibition at 5.2 µg/mL of 80.5%.
Regarding `CCCCN(Cc1ccccc1)C(=O)Nc1ccccc1C` [1-Benzyl-1-( -n-butyl)-3-(2-methylphenyl)urea], the inhibition at 5.2 µg/mL under setting [1] is 78.8%.
In turn, `CC(C)(C)CCN(Cc1ccccc1)C(=O)Nc1c(F)cc(F)cc1F` [1-Benzyl-1-[3,3-dimethylbutyl]-3-[2,4,6-trifluorophenyl]urea] showed an inhibition at 5.2 µg/mL of 90%.
For `CCCCN(Cc1ccc(Br)cc1)C(=O)Nc1ccc(C)cc1C` [1-(4-Bromobenzyl)-1-(n-butyl)-3-(2,4-dimethylphenyl)urea], the inhibition at 5.2 µg/mL under setting [1] came out at 81%.
Consider `CCCCCOc1ccc(CN(Cc2ccc(CCCCC)cc2)C(=O)Nc2ccc(Cl)cc2C)cc1` [1-(4-n-Pentylbenzyl)-1-(4-n-pentyloxybenzyl)-3-(2-methyl-4-chlorophenyl)urea], for which the inhibition at 5.2 µg/mL under setting [1] turned out to be 91%.
As to `Cc1cc(C)c(NC(=O)N(Cc2ccccc2)C(Cc2ccccc2)c2ccc(OCc3ccccc3)cc2)cc1C` (stereo not shown) [1-Benzyl-1-[2-phenyl-1-(4-benzyloxyphenyl)ethyl]-3-(2,4,5-trimethylphenyl)urea], the inhibition at 5.2 µg/mL under setting [1] was determined as 93.7%.
On the same count and under the same terms, next, `CCCCN(Cc1ccccc1Cl)C(=O)Nc1ccc(C)cc1C` [1-( -n-Butyl)-1-(2-chlorobenzyl)-3-(2,4-dimethylphenyl)urea]: 95.5%.
Still for that read-out and setting: next, `CCCCN(CCCc1ccccc1)C(=O)Nc1ccc(C)cc1C` [1-(n-Butyl)-1-(3-phenylpropyl)-3-(2,4-dimethylphenyl)urea]: 97.4%.
